Assay results as given in ChEMBL document CHEMBL1152465, “Comparative evaluation of the inhibitory activities of a series of pyrimidinedione congeners that inhibit human immunodeficiency virus types 1 and 2” (Antimicrob Agents Chemother, 2008).
Active and inactive are the calls of the source.

Experiments:
[1] = tested on: Human immunodeficiency virus 2; experiment: Antiviral activity against HIV2 assessed as inhibition of viral single round replication at early time point; format: functional, organism-based
[2] = tested on: Simian immunodeficiency virus; experiment: Antiviral activity against SIV MAC251 infected in human 174xCEM cells assessed as inhibition of virus-induced cytopathic effect; format: functional, organism-based
[3] = molecular target: Human immunodeficiency virus type 1 reverse transcriptase (Human immunodeficiency virus 1, UniProt Q72547); experiment: Inhibition of wild type HIV1 reverse transcriptase assessed as 32P-labeled GMP incorporation into nascent DNA strand
[4] = tested on: Human immunodeficiency virus 2; experiment: Inhibition of HIV2 reverse transcriptase
[5] = tested on: Human immunodeficiency virus 2; experiment: Antiviral activity against HIV2 ROD infected in human CEM-SS cells assessed as inhibition of virus-induced cytopathic effect by XTT assay; format: functional, organism-based, ISOLATE ROD; settings: Human immunodeficiency virus 2, ISOLATE ROD, CEM-SS; read-out: EC50
[6] = tested on: Human immunodeficiency virus 2; experiment: Antiviral activity against HIV2 infected in human CEM-SS cells assessed as inhibition of viral replication and virus-induced cytopathic effect by dose-response curve analysis; format: functional; settings: Human immunodeficiency virus 2, CEM-SS
[7] = Therapeutic index, ratio of TC50 human HeLa cells expressing CD4-LTR to EC50 for HIV1 entry inhibition in human HeLa cells expressing CD4-LTR; format: cell-based; settings: read-out: TI
[8] = Therapeutic index, ratio of TC50 for human CEM-SS cells to EC50 for HIV2 ROD infected in human CEM-SS cells; format: cell-based; settings: CEM-SS cells, read-out: TI
[9] = molecular target: Human immunodeficiency virus type 1 reverse transcriptase (Human immunodeficiency virus 1, UniProt Q72547, K103N); experiment: Inhibition of HIV1 reverse transcriptase K103N mutant assessed as 32P-labeled GMP incorporation into nascent DNA strand
[10] = tested on: Human immunodeficiency virus 2; experiment: Antiviral activity against HIV2 assessed as inhibition of viral replication treated at time points after viral entry into host cells; format: functional, organism-based
[11] = Cytotoxicity against human CEM-SS cells by XTT assay; format: cell-based; settings: read-out: TC50 (the source's name)
[12] = Cytotoxicity against human HeLa cells expressing CD4-LTR by XTT assay; format: cell-based; settings: read-out: TC50 (the source's name)
[13] = tested on: Human immunodeficiency virus 1; experiment: Antiviral activity against HIV1 infected in human HeLa cells expressing CD4-LTR assessed as inhibition of viral entry-related beta galactosidase expression treated for 2 hrs followed by drug wash out measured after 48 hrs by MAGI assay; format: functional, organism-based; settings: for EC50: Human immunodeficiency virus 1, HeLa
[14] = tested on: Human immunodeficiency virus 2; experiment: Inhibition of HIV2 reverse transcriptase assessed as 32P-labeled GMP incorporation into nascent DNA strand at highest concentration
[15] = tested on: Human immunodeficiency virus 1; experiment: Antiviral activity against HIV1 infected in human CEM-SS cells assessed as inhibition of viral replication and virus-induced cytopathic effect by dose-response curve analysis; format: functional; settings: Human immunodeficiency virus 1, CEM-SS
[16] = tested on: Human immunodeficiency virus 1; experiment: Antiviral activity against HIV1 infected in human HeLa cells expressing CD4-LTR assessed as inhibition of viral entry-related beta galactosidase expression at 0.5 uM followed by drug wash out and viral infection measured after 48 hrs by MAGI assay; format: functional, organism-based
[17] = Therapeutic index, ratio of TC50 for human CEM-SS cells to EC50 for HIV1 RF infected in human CEM-SS cells; format: cell-based; settings: read-out: TI
[18] = tested on: HeLa; experiment: Inhibition of HIV1 gp120/CD4 interaction assessed as inhibition of gp120 and gp41 coexpressing human HL2/3 cell fusion to CD4 expressing human HeLa cells treated for 2 hrs measured after 48 hrs by chemiluminescence assay; format: cell-based; settings: Human immunodeficiency virus 1
[19] = tested on: Human immunodeficiency virus 1; experiment: Antiviral activity against HIV1 RF infected in human CEM-SS cells assessed as inhibition of virus-induced cytopathic effect by XTT assay; format: functional, organism-based; settings: Human immunodeficiency virus 1, RF
[20] = tested on: Human immunodeficiency virus 1; experiment: Antiviral activity against HIV1 infected in human HeLa cells expressing CD4-LTR assessed as inhibition of viral entry-related beta galactosidase expression at > 0.5 uM followed by drug wash out and viral infection measured after 48 hrs by MAGI assay; format: functional, organism-based
[21] = tested on: Human immunodeficiency virus 1; experiment: Antiviral activity against HIV1 infected in human HeLa cells expressing CD4-LTR assessed as inhibition of viral entry-related beta galactosidase expression at 0.2 to 0.4 uM followed by drug wash out and viral infection measured after 48 hrs by MAGI assay; format: functional, organism-based
[22] = tested on: Human immunodeficiency virus 1; experiment: Antiviral activity against HIV1 infected in human HeLa cells expressing CD4-LTR assessed as inhibition of viral entry-related beta galactosidase expression pretreated 2 hrs before viral infection measured after 48 hrs of infection by MAGI assay; format: functional, organism-based
[23] = tested on: Human immunodeficiency virus 1; experiment: Antiviral activity against HIV1 infected in human HeLa cells expressing CD4-LTR assessed as inhibition of viral entry-related beta galactosidase expression at > 10 ug/ml followed by drug wash out and viral infection measured after 48 hrs by MAGI assay; format: functional, organism-based

Structure (SMILES)	Activity [1]	Activity [2]	IC50 [3]	Activity [4]	EC50 [5]	EC99 [6]	selectivity ratio [7]	selectivity ratio [8]	IC50 [9]	Activity [10]	CC50 [11]	CC50 [12]	EC50 [13]	Activity [14]	EC99 [15]	selectivity ratio [17]	inhibition [18]	EC50 [19]	also measured
CCc1c(C(=O)c2cc(C)cc(C)c2)n(CC2CC=CC2)c(=O)[nH]c1=O	Active	inactive	0.179 µM	inactive	16 µM	100 µM	15700	> 71	2.6 µM	inactive	1100 µM	1120 µM	0.07 µM	inactive	1 µM	553000	inactive	0.002 µM	Activity [16]: inactive
Cc1cc(C)cc(Oc2c(C(C)C)c(=O)[nH]c(=O)n2Cc2ccccc2)c1	Active	inactive	0.114 µM	inactive	0.1 µM		4180	278	0.975 µM	inactive	38.2 µM	38.2 µM	0.009 µM	inactive	1 µM	2720	inactive	0.014 µM	
CCc1c(C(=O)c2cc(C)cc(C)c2)n(CC2=CCCC2)c(=O)[nH]c1=O	Active	inactive	0.088 µM	inactive	1.4 µM		536	42.6	1.93 µM	inactive	60.5 µM	60.5 µM	0.11 µM	inactive	1 µM	23700	inactive	0.0025 µM	
Cc1cn([C@H]2C[C@H](N=[N+]=[N-])[C@@H](CO)O2)c(=O)[nH]c1=O																			Activity [20]: inactive
CCc1c(C(=O)c2cc(C)cc(C)c2)n(CCC2C=CCC2)c(=O)[nH]c1=O (configuration not stated)	Active	inactive	0.075 µM	inactive	0.2 µM		1310	421	1.88 µM	inactive	92 µM	92 µM	0.07 µM	inactive	1 µM	1680	inactive	0.054 µM	
CCc1c(Sc2cc(C)cc(C)c2)n(Cc2ccccc2)c(=O)[nH]c1=O	Active	inactive	15.6 µM	inactive	0.4 µM		5980	> 2490	4.05 µM	inactive	1100 µM	1100 µM	0.18 µM	inactive	1 µM	598000	inactive	0.0018 µM	
CCc1c(Oc2cc(C)cc(C)c2)n(CC2CC2)c(=O)[nH]c1=O	Active	inactive	0.016 µM	inactive	0.6 µM	10 µM	202000	> 2100	0.21 µM	inactive	1300 µM	1280 µM	0.006 µM	inactive	1 µM	215000	inactive	0.006 µM	
Cc1cc(C)cc(C(=O)c2c(C(C)C)c(=O)[nH]c(=O)n2CC2=CCCC2)c1	Active	inactive	0.02 µM	inactive	0.1 µM	1 µM	2290	122	1.6 µM	inactive	16.7 µM	20.8 µM	0.009 µM	inactive	0.001 µM	523000	inactive	0.0001 µM	
Cc1cc(C)cc(C(=O)c2c(C(C)C)c(=O)[nH]c(=O)n2CC2CC2)c1	Active	inactive	1.97 µM	inactive	0.1 µM	10 µM	101000	13000	2.7 µM	inactive	1200 µM	1180 µM	0.012 µM	inactive	0.001 µM	2.55e+06	inactive	0.0005 µM	
O=C1Nc2ccc(Cl)cc2[C@@](C#CC2CC2)(C(F)(F)F)O1 [EFAVIRENZ]																			Activity [21]: Active; Activity [13]: 0.02 µM
Cc1cc(C)cc(C(=O)c2c(C(C)C)c(=O)[nH]c(=O)n2CC2CC=CC2)c1	Active	inactive	0.651 µM	inactive	15.5 µM	100 µM	2690	> 75	23 µM	inactive	1100 µM	1120 µM	0.41 µM	inactive	1 µM	491000	inactive	0.0022 µM	
Cc1cc(C)cc(Oc2c(C(C)C)c(=O)[nH]c(=O)n2CC2CCC2)c1	Active	inactive	0.12 µM	inactive	1.3 µM			12.2	0.213 µM	inactive	16.1 µM	16.6 µM	0.26 µM	inactive	1 µM	32200	inactive	0.0005 µM	
COc1cc(-c2ccc(/N=N/c3ccc4c(S(=O)(=O)O)cc(S(=O)(=O)O)c(N)c4c3O)c(OC)c2)ccc1/N=N/c1ccc2c(S(=O)(=O)O)cc(S(=O)(=O)O)c(N)c2c1O																			Activity [22]: Active; Activity [23]: inactive; Activity [13]: Active
CCc1c(Oc2cc(C)cc(C)c2)n(Cc2ccccc2)c(=O)[nH]c1=O	Active		0.095 µM	inactive	0.3 µM	0.3 µM	10200	2550	0.197 µM	inactive	802 µM	802 µM	0.08 µM	inactive	0.3 µM	165000		0.0049 µM	
